According to patent publication US20090281099A1, “SUBSTITUTED PYRAZINONE DERIVATIVES FOR USE AS A MEDICINE” (priority 2006, published 2009):

Columns and labels:
hα2A receptor = target: T1, hα2A receptor (Homo sapiens, UniProt P08913); experiment: Radioligand binding experiment for hα2A receptor ([3H]-raulwolscine, CHO cell membranes); settings: [3H]raulwolscine 1 nM, membranes of CHO cells transfected with human α2A receptor; read-out: h-α2A pIC50 (converted)
T1 construct: expressed in transfected cells
T1 sequence (P08913 1-465): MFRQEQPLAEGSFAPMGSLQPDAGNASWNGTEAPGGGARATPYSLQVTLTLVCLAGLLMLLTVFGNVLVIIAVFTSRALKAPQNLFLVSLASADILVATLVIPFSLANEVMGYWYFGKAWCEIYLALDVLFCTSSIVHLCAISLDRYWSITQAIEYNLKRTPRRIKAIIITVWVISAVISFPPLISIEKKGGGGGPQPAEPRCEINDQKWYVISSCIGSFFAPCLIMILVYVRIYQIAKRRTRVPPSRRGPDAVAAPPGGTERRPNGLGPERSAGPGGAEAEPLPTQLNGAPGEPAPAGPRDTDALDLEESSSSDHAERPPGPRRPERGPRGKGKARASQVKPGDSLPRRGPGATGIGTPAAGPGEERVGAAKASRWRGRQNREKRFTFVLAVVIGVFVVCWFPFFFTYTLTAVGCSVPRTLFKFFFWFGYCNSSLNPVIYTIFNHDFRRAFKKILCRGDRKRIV

hα2C receptor = target: T2, hα2C receptor (Homo sapiens, UniProt P18825); experiment: Radioligand binding experiment for α2C-adrenoceptor ([3H]-raulwolscine, CHO cell membranes); settings: [3H]raulwolscine 1 nM, membranes of CHO cells transfected with human α2C receptor; read-out: h-α2C pIC50 (converted)
T2 construct: expressed in transfected cells
T2 sequence (P18825 1-462): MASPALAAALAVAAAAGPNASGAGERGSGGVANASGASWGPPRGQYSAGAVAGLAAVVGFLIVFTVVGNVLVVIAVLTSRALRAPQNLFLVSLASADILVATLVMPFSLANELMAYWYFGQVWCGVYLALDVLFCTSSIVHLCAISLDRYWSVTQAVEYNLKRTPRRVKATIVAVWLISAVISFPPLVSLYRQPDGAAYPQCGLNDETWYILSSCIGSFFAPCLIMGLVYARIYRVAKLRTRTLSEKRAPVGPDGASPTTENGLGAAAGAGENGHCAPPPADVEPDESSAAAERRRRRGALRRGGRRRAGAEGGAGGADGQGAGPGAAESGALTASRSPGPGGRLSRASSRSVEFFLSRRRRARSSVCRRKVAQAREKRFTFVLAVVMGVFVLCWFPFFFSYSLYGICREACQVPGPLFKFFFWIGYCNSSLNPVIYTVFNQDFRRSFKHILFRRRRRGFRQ

5HT-Transporter = target: T3, 5HT-Transporter (Homo sapiens, UniProt P31645); experiment: Binding experiment for the 5HT-transporter ([3H]paroxetine, human platelet membranes); settings: [3H]paroxetine 0.5 nM, read-out: h-5HTT pIC50 (converted)
T3 construct: Human platelet membranes (Oceanix Biosciences Corporation, Hanover, Md., USA) were thawed; tissue Oceanix Biosciences Corporation; host or cells: human platelet membranes
T3 sequence (P31645 whole entry): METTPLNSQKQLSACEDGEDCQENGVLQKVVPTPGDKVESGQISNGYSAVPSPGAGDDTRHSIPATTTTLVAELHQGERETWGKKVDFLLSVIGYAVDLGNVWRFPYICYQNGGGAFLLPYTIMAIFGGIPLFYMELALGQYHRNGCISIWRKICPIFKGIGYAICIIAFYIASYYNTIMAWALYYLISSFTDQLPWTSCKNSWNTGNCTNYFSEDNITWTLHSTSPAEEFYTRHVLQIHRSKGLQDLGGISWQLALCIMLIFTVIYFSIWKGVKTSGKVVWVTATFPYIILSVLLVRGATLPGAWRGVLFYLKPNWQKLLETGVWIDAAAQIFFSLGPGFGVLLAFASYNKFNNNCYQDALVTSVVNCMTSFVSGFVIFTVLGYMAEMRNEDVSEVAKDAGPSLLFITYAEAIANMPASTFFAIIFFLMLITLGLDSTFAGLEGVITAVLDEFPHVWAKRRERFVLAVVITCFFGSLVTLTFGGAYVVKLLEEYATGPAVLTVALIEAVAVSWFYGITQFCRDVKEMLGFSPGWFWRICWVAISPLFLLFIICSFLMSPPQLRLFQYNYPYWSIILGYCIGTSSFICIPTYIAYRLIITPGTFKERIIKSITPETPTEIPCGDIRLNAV

IC50 (hα2A receptor)	IC50 (hα2C receptor)	IC50 (5HT-Transporter)	SMILES
0.251 µM	0.0251 µM	1 µM	O=c1c(NC2CCN(CCOc3ccccc3)CC2)nccn1CC1CCCCC1 [Compound 5-3]
0.126 µM	0.00631 µM	> 10 µM	CCCCN(Cc1ccccc1)C(=O)Cn1ccnc(NC2CCN(CCOc3ccccc3)CC2)c1=O [Compound 1-18]
1.26 µM	1 µM	> 10 µM	COCCCn1ccnc(N2CCN(CCOc3ccc(F)cc3)CC2)c1=O [Compound 9-1]
0.126 µM	0.00794 µM	3.16 µM	O=c1c(NC2CCN(CCOc3ccccc3)CC2)nccn1-c1ccc(N2CCC(N3CCCC3)CC2)cc1 [Compound 2-10]
0.631 µM	0.0501 µM	> 10 µM	COCCn1ccnc(NC2CCN(CCOc3ccccc3)CC2)c1=O [Compound 3-1]
0.251 µM	0.00794 µM	> 10 µM	O=C(Cn1ccnc(NC2CCN(CCOc3ccccc3)CC2)c1=O)N1CCCCC1 [Compound 2-3]
0.0794 µM	0.00251 µM	> 10 µM	O=C(Cn1ccnc(NC2CCN(CCOc3ccccc3)CC2)c1=O)N1CCC(N2CCCC2)CC1 [Compound 2-8]
0.251 µM	0.00631 µM	7.94 µM	O=C(Cn1ccnc(NC2CCN(CCOc3ccccc3)CC2)c1=O)NCc1ccccc1 [Compound 1-11]
0.126 µM	0.00251 µM	6.31 µM	CC(C)(C)OC(=O)NCCCn1ccnc(NC2CCN(CCOc3ccccc3)CC2)c1=O [Compound 1-20]
0.158 µM	0.00501 µM	1 µM	O=C(Cn1ccnc(NC2CCN(CCOc3ccccc3)CC2)c1=O)N1CCC(Cc2ccccc2)CC1 [Compound 2-7]
0.158 µM	0.0158 µM	1.58 µM	O=c1c(NC2CCN(CCOc3ccccc3)CC2)nccn1Cc1cccc(Br)c1 [Compound 4-2]
0.1 µM	0.00398 µM	> 10 µM	O=C(Cn1ccnc(NC2CCN(CCOc3ccccc3)CC2)c1=O)N1CCC(C(F)(F)F)CC1 [Compound 2-6]
0.2 µM	0.00126 µM	1 µM	O=C1c2ccccc2C(=O)N1CCCn1ccnc(NC2CCN(CCOc3ccccc3)CC2)c1=O [Compound 2-15]
0.501 µM	0.251 µM	3.98 µM	O=c1c(N2CCN(CCOc3ccc(F)cc3)CC2)nccn1CCOCc1ccccc1 [Compound 9-3]
0.158 µM	0.00501 µM	6.31 µM	O=C(Cn1ccnc(NC2CCN(CCOc3ccccc3)CC2)c1=O)Nc1ccccc1 [Compound 1-8]
0.251 µM	0.0158 µM	3.16 µM	CCOC(=O)CCCCn1ccnc(NC2CCN(CCOc3ccccc3)CC2)c1=O [Compound 3-3]
0.02 µM	0.000794 µM	1.58 µM	CN(C)CCN(Cc1ccccc1)C(=O)Cn1ccnc(NC2CCN(CCOc3ccccc3)CC2)c1=O [Compound 1-21]
0.2 µM	0.0794 µM	6.31 µM	O=c1c(N2CCN(CCOc3ccc(F)cc3)CC2)nccn1Cc1ccc(Cl)s1 [Compound 12-2]
0.316 µM	0.251 µM	1 µM	O=c1c(N2CCN(CCOc3ccc(F)cc3)CC2)nccn1Cc1ccc(-c2ccccc2)cc1 [Compound 11-6]
0.126 µM	0.00126 µM	3.16 µM	O=c1c(NC2CCN(CCOc3ccccc3)CC2)nccn1CCCn1c(=O)[nH]c2ccccc21 [Compound 2-17]
0.158 µM	0.0251 µM	> 10 µM	COC(=O)Cn1ccnc(NC2CCN(CCOc3ccccc3)CC2)c1=O [Compound 3-2]
0.501 µM	0.251 µM	7.94 µM	O=c1c(N2CCN(CCOc3ccc(F)cc3)CC2)nccn1CC1CCCCC1 [Compound 13-3]
0.126 µM	0.002 µM	7.94 µM	CN(C(=O)Cn1ccnc(NC2CCN(CCOc3ccccc3)CC2)c1=O)C1CCCCC1 [Compound 1-6]
0.251 µM	0.316 µM	> 10 µM	Cc1nc(Cn2ccnc(N3CCN(CCOc4ccc(F)cc4)CC3)c2=O)cs1 [Compound 12-3]
0.158 µM	0.00794 µM	> 10 µM	CC(C)(C)C(=O)Cn1ccnc(NC2CCN(CCOc3ccccc3)CC2)c1=O [Compound 5-5]
0.316 µM	0.2 µM	> 10 µM	CC(C)(C)C(=O)Cn1ccnc(N2CCN(CCOc3ccc(F)cc3)CC2)c1=O [Compound 13-4]
0.2 µM	0.00794 µM	> 10 µM	CN(CCc1ccccc1)C(=O)Cn1ccnc(NC2CCN(CCOc3ccccc3)CC2)c1=O [Compound 1-16]
0.1 µM	0.0158 µM	> 10 µM	CCCn1ccnc(NC2CCN(CCOc3ccccc3)CC2)c1=O [Compound 5-2]
0.501 µM	0.0398 µM	> 10 µM	O=c1c(NC2CCN(CCOc3ccccc3)CC2)nccn1CC1CCCCO1 (stereo not drawn) [Compound 6-1]
0.316 µM	0.501 µM	> 10 µM	CN(C)C(=O)Cn1ccnc(N2CCN(CCOc3ccc(F)cc3)CC2)c1=O [Compound 7-2]
